Test results published in patent publication US11738096B2, “Method of detecting diseased or damaged tissue with a pH-triggered polypeptide fluorophore composition” (University of Rhode Island Board of Trustees, priority 2016, dated 2023).
Where a SMILES comes first, the peptide text is derived from it. Where no end group is shown, it is not given here. The star is where a group is joined. X2 = CC1(C)C(/C=C/C2=C(Oc3ccc(S(=O)(=O)O)cc3)C(=C/C=C3/N(CCCCCC(=O)NCCN4C(=O)CC(*)C4=O)c4ccc(S(=O)(=O)O)cc4C3(C)C)/CCC2)=[N+](CCCCS(=O)(=O)O)c2ccc(S(=O)(=O)[O-])cc21; X1 = CC1(C)C(/C=C/C=C/C=C/C=C2/N(CCCCCC(=O)NCCN3C(=O)CC(*)C3=O)c3ccc4ccccc4c3C2(C)C)=[N+](CCCCS(=O)(=O)[O-])c2ccc3ccccc3c21; ICG maleimide = indocyanine green maleimide

Columns and labels:
[1] = residue X in AcWL-X-LL, relative to virtual glycine; cited from earlier work
[2] = free ICG as used now; cited from earlier work
[3] = cited from earlier work
[4] = humans, high dose of 5 mg/kg of body weight; cited from earlier work
[5] = NIR fluorescence imaging of blood vessels and blood flow (ear, leg, blood samples) in mice; assay type: in vivo, mouse; conditions: for fluorescent signal in blood samples: blood collected 5-120 min after IV injection; for imaging of blood vessels in ear and leg: IV 100 μL of 40 μM, 5, 30, 60, 90, 120 min
Description: Adult female nude mice (Envigo), 20 g in body mass were used in the study. Fluorescent constructs were given as a single tail vein injection in amounts of 100 μL of 40 μM in PBS. Imaging of mouse ear and leg was performed at 5, 30, 60, 90 and 120 min after construct administration. At 5, 30, 60, 90 and 120 min after construct administration 5 μL of blood was withdrawn from tail (and mixed with 5 μL of anticoagulating solution to preserve blood) while animal was under anesthesia. Mice were euthanized immediately after last imaging point (120 min). Blood collected from all animals was deposited on the glass slide, dried and imaged. Imaging was performed using Novadaq clinical imaging instrument. Autofluorescence was established by imaging mouse with no injection of fluorescent constructs (the level of autofluorescence signal was insignificant compared to the signal after the constructs administration).

[6] = cited from earlier work; remark: listed apart in the source
[7] = system: 4T1 murine mammary carcinoma; assay: Tumor targeting in mice bearing 4T1 tumors; assay type: in vivo, mouse; conditions: 20 μM, IV, 16 h
Description: Adult female nude mice and female BALB/cAnNHsd mice (Envigo), 20-25 g in body mass were used in the study. Mouse mammary cancer 4T1 cells were subcutaneously implanted in the right flank (8×10^5 cells/0.1 mL/flank) of adult female BALB/cAnNHsd mice. Rat bladder cancer AY27 cells were subcutaneously implanted in the right flank (8×10^5 cells/0.1 mL/flank) of adult female nude mice. When tumors reached approximately 5-6 mm in diameter, single tail vein injection or single intraperitoneal injection of fluorophore-pHLIP® solutions in PBS were performed. Fluorescent constructs were used in amounts of 100 μL of 40 μM, or 100 μL of 20 μM, or 100 μL of 10 μM, or 100 μL of 5 μM. Imaging of mouse was performed at 16 hours after constructs administration. Skin was removed from the tumor site just before imaging while animal was under gas anesthesia, and mice were euthanized immediately after imaging. Tumor, kidney and liver were harvested, imaged and used for histopathological analysis. Imaging was performed using Stryker clinical imaging instrument. Autofluorescence was established by imaging mouse with no injection of fluorescent constructs (the level of autofluorescence signal was insignificant compared to the signal after the constructs administration).

| Compound | ΔGX^cor, solvation free energy of the side chain [1] | other results |
| --- | --- | --- |
| C[C@H](N)C(=O)O [Ala, Alanine] | +0.65 kcal/mol | – |
| N=C(N)NCCC[C@H](N)C(=O)O [Arg, Arginine] | -0.66 kcal/mol | – |
| NC(=O)C[C@H](N)C(=O)O [Asn, Asparagine] | +0.30 kcal/mol | – |
| N[C@@H](CC(=O)O)C(=O)O [Asp, Aspartic acid] | -2.49 kcal/mol | – |
| N[C@@H](CCC(=O)O)C(=O)O [Glu, Glutamic acid] | -2.48 kcal/mol | – |
| N[C@@H](Cc1c[nH]cn1)C(=O)O [His, Histidine] | -1.18 kcal/mol | – |
| CC1(C)C(/C=C/C=C/C=C/C=C2\N(CCCCS(=O)(=O)[O-])c3ccc4ccccc4c3C2(C)C)=[N+](CCCCS(=O)(=O)[O-])c2ccc3ccccc3c21.[Na+] [ICG, indocyanine green] | – | imaging time [2]: 2 to 5 min; time of appearance unconjugated in the bile ([3]; after intravenous injection): about 8 min; half-life time ([3]; following intravenous injection): 2.5 min; time to reach the nearest draining lymph node ([3]; injected outside blood vessels): ≤ 15 min; toxic effects [4]: No significant toxic effects |
| CC[C@H](C)[C@H](NC(=O)[C@@H]1CCCN1C(=O)[C@H](CC(N)=O)NC(=O)[C@H](CCC(N)=O)NC(=O)[C@H](CCC(=O)O)NC(=O)[C@H](CSC1CC(=O)N(CCNC(=O)CCCCCN2/C(=C/C=C/C=C/C=C/C3=[N+](CCCCS(=O)(=O)[O-])c4ccc5ccccc5c4C3(C)C)C(C)(C)c3c2ccc2ccccc32)C1=O)NC(=O)[C@H](C)N)C(=O)N[C@@H](Cc1ccc(O)cc1)C(=O)N[C@@H](Cc1c[nH]c2ccccc12)C(=O)N[C@@H](C)C(=O)N[C@@H](CCCNC(=N)N)C(=O)N[C@@H](Cc1ccc(O)cc1)C(=O)N[C@@H](C)C(=O)N[C@@H](CC(N)=O)C(=O)N[C@@H](Cc1c[nH]c2ccccc12)C(=O)N[C@@H](CC(C)C)C(=O)N[C@@H](Cc1ccccc1)C(=O)N[C@H](C(=O)N[C@H](C(=O)N1CCC[C@H]1C(=O)N[C@@H](CC(C)C)C(=O)N[C@@H](CC(C)C)C(=O)N[C@@H](CC(C)C)C(=O)N[C@@H](CC(C)C)C(=O)N[C@@H](CC(N)=O)C(=O)N[C@@H](CC(C)C)C(=O)N[C@@H](C)C(=O)N[C@@H](CC(C)C)C(=O)N[C@@H](CC(C)C)C(=O)N[C@H](C(=O)N[C@@H](CC(=O)O)C(=O)N[C@@H](C)C(=O)N[C@@H](CC(=O)O)C(=O)N[C@@H](CCC(=O)O)C(=O)NCC(=O)N[C@H](C(=O)O)[C@@H](C)O)C(C)C)[C@@H](C)O)[C@@H](C)O (some centres unmarked) [ICG-NpHLIP®] (H-AC(X1)EQNPIYWARYANWLFTTPLLLLNLALLVDADEGT-OH) | – | fluorescent signal in blood samples [5]: significantly reduced signal |
| CC[C@H](C)[C@H](NC(=O)[C@@H]1CCCN1C(=O)[C@H](CC(N)=O)NC(=O)[C@H](CCC(N)=O)NC(=O)[C@H](CCC(=O)O)NC(=O)[C@H](CSC1CC(=O)N(CCNC(=O)CCCCCN2/C(=C/C=C/C=C/C=C/C3=[N+](CCCCS(=O)(=O)[O-])c4ccc5ccccc5c4C3(C)C)C(C)(C)c3c2ccc2ccccc32)C1=O)NC(=O)[C@H](C)N)C(=O)N[C@@H](Cc1ccc(O)cc1)C(=O)N[C@@H](Cc1c[nH]c2ccccc12)C(=O)N[C@@H](C)C(=O)N[C@@H](CCCNC(=N)N)C(=O)N[C@@H](Cc1ccc(O)cc1)C(=O)N[C@@H](C)C(=O)N[C@@H](CC(=O)O)C(=O)N[C@@H](Cc1c[nH]c2ccccc12)C(=O)N[C@@H](CC(C)C)C(=O)N[C@@H](Cc1ccccc1)C(=O)N[C@H](C(=O)N[C@H](C(=O)N1CCC[C@H]1C(=O)N[C@@H](CC(C)C)C(=O)N[C@@H](CC(C)C)C(=O)N[C@@H](CC(C)C)C(=O)N[C@@H](CC(C)C)C(=O)N[C@@H](CC(=O)O)C(=O)N[C@@H](CC(C)C)C(=O)N[C@@H](C)C(=O)N[C@@H](CC(C)C)C(=O)N[C@@H](CC(C)C)C(=O)N[C@H](C(=O)N[C@@H](CC(=O)O)C(=O)N[C@@H](C)C(=O)N[C@@H](CC(=O)O)C(=O)N[C@@H](CCC(=O)O)C(=O)NCC(=O)N[C@H](C(=O)O)[C@@H](C)O)C(C)C)[C@@H](C)O)[C@@H](C)O (some centres unmarked) [ICG-WT pHLIP®] | – | fluorescent signal in blood samples [5]: persistence of strong fluorescent signal within 2 hours |
| C#CCNC(=O)CCCCC[N+]1=C(/C=C/C=C/C=C/C=C2\N(CCCCS(=O)(=O)[O-])c3ccc4ccccc4c3C2(C)C)C(C)(C)c2c1ccc1ccccc21 [ICG-alkyne] | – | Solubility [6]: DMSO, DMF, Acetonitrile, Methanol |
| CC(C)C[C@H](NC(=O)[C@H](Cc1ccc(O)cc1)NC(=O)[C@H](C)NC(=O)[C@H](CCCNC(=N)N)NC(=O)[C@H](Cc1c[nH]c2ccccc12)NC(=O)[C@@H]1CCCN1C(=O)[C@H](CC(N)=O)NC(=O)[C@H](CCC(N)=O)NC(=O)[C@H](CC(=O)O)NC(=O)[C@H](CC(=O)O)NC(=O)[C@H](CSC1CC(=O)N(CCNC(=O)CCCCCN2/C(=C/C=C3\CCCC(/C=C/C4=[N+](CCCCS(=O)(=O)O)c5ccc(S(=O)(=O)[O-])cc5C4(C)C)=C3Oc3ccc(S(=O)(=O)O)cc3)C(C)(C)c3cc(S(=O)(=O)O)ccc32)C1=O)NC(=O)[C@H](C)N)C(=O)N[C@@H](CC(=O)O)C(=O)N[C@@H](CC(C)C)C(=O)N[C@@H](CC(C)C)C(=O)N[C@@H](Cc1ccccc1)C(=O)N1CCC[C@H]1C(=O)N[C@H](C(=O)N[C@@H](CC(=O)O)C(=O)N[C@H](C(=O)N[C@@H](CC(C)C)C(=O)N[C@@H](CC(C)C)C(=O)N[C@@H](CC(C)C)C(=O)N[C@@H](CC(=O)O)C(=O)N[C@@H](CC(C)C)C(=O)N[C@@H](CC(C)C)C(=O)N[C@@H](Cc1c[nH]c2ccccc12)C(=O)N[C@@H](C)C(=O)O)[C@@H](C)O)[C@@H](C)O (some centres unmarked) [IR800-Var3] (H-AC(X2)DDQNPWRAYLDLLFPTDTLLLDLLWA-OH) | – | organ of clearance [7]: cleared by the kidney |
| NCCCC[C@H](N)C(=O)O [Lys, Lysine] | -1.65 kcal/mol | – |
| CSCC[C@H](N)C(=O)O [Met, Methionine] | +1.82 kcal/mol | – |
| N[C@@H](Cc1ccccc1)C(=O)O [Phe, Phenylalanine] | +2.86 kcal/mol | – |
| O=C(O)[C@@H]1CCCN1 [Pro, Proline] | +1.01 kcal/mol | – |
| N[C@@H](CO)C(=O)O [Ser, Serine] | +0.69 kcal/mol | – |
| C[C@@H](O)[C@H](N)C(=O)O [Thr, Threonine] | +0.90 kcal/mol | – |
| N[C@@H](Cc1c[nH]c2ccccc12)C(=O)O [Trp, Tryptophan] | +3.24 kcal/mol | – |
| N[C@@H](Cc1ccc(O)cc1)C(=O)O [Tyr, Tyrosine] | +1.86 kcal/mol | – |
| CC(C)[C@H](N)C(=O)O [Val, Valine] | +1.61 kcal/mol | – |
| ICG-Hum pHLIP®: ICG maleimide conjugated to Cys of Hum pHLIP® GCDNNEGFFATLGGEIPLWSDVVLAIEG (SEQ ID NO: 446) (GC(ICG maleimide)DNNEGFFATLGGEIPLWSDVVLAIEG) | – | imaging of blood vessels in ear and leg [5]: slow in reaching the best imagibility condition and was fast in decaying |
| IR800-WT: IR800 maleimide conjugated to Cys of WT pHLIP® peptide (SEQ ID NO: 444) (AC(IR800 maleimide)EQNPIYWARYADWLFTTPLLLLDLALLVDADEGT) | – | imaging of blood vessels in ear and leg [5]: better in imaging of blood vessels, however not nearly as good as ICG-WT and ICG-Var3 pHLIP®s |
